Assay results taken from patent publication US20230085307A1, “PYRIDAZINONE COMPOUND AND HERBICIDE” (NISSAN CHEMICAL CORPORATION, priority 2019, published 2023).

Experiments:
[1] = test system: persian speedwell; assay: Test Example 4: herbicidal effect by soil treatment (Table 19, symbol R); type: in vivo, Persian speedwell (Veronica persica); conditions: amount of applied herbicide 320 g/ha
How it was run: (§1)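 Step 1: sow seeds in sterilized diluvial soil, cover ~1.5 cm. Step 2: spray diluted emulsion onto soil surface at predetermined rate. Step 3: greenhouse, 25–30° C, three weeks. Step 4: grade effect on each plant by earlier criteria.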

[2] = test system: barnyard grass; assay: Test Example 3: herbicidal effect by foliage application, Wagner pot (Table 18, symbol H); type: in vivo, barnyard grass (Echinochloa crus-galli)
How it was run: (§2)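 Plants were sown in alluvial soil held under 0.1–0.5 cm standing water and grown 14 days in a greenhouse at 25–30 °C. An emulsifiable formulation, water-diluted to the set dose, was then sprayed onto the foliage, and effects were scored three weeks later using previously defined criteria.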

[3] = test system: velvetleaf; assay: Test Example 5: herbicidal effect by foliage application, plastic box (Table 20, symbol M); type: in vivo, velvetleaf (Abutilon theophrasti)
How it was run: (§3)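 Foliar spray test: emulsion formulation diluted in water to a set application rate, sprayed onto 14-day-old plants raised in diluvial soil at 25° C to 30° C under glass. Both herbicidal effect and crop effect rated visually three weeks later.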

[4] = test system: green foxtail; assay: Test Example 5: herbicidal effect by foliage application, plastic box (Table 20, symbol G); type: in vivo, green foxtail (Setaria viridis)
How it was run: as §3

[5] = test system: false cleavers; assay: Test Example 5: herbicidal effect by foliage application, plastic box (Table 20, symbol Q); type: in vivo, false cleavers (Galium spurium)
How it was run: as §3

[6] = test system: Italian ryegrass; assay: Test Example 4: herbicidal effect by soil treatment (Table 19, symbol K); type: in vivo, Italian ryegrass (Lolium multiflorum); conditions: amount of applied herbicide 320 g/ha
How it was run: as §1

[7] = test system: wild oat; assay: Test Example 5: herbicidal effect by foliage application, plastic box (Table 20, symbol I); type: in vivo, wild oat (Avena fatua)
How it was run: as §3

[8] = test system: Italian ryegrass; assay: Test Example 5: herbicidal effect by foliage application, plastic box (Table 20, symbol K); type: in vivo, Italian ryegrass (Lolium multiflorum)
How it was run: as §3

[9] = test system: southern crabgrass; assay: Test Example 4: herbicidal effect by soil treatment (Table 19, symbol F); type: in vivo, southern crabgrass (Digitaria ciliaris); conditions: amount of applied herbicide 320 g/ha
How it was run: as §1

[10] = test system: chickweed; assay: Test Example 5: herbicidal effect by foliage application, plastic box (Table 20, symbol P); type: in vivo, common chickweed (Stellaria media)
How it was run: as §3

[11] = test system: Japanese bulrush; assay: Test Example 1: herbicidal activity, application before weed generation under submerged conditions (Table 16, symbol B); type: in vivo, Japanese bulrush (Schoenoplectus juncoides); conditions: amount of applied herbicide 320 g/ha
How it was run: (§4)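 Alluvial soil was flooded to 4 cm depth, weed seeds were sown mixed and 2.5-leaf rice seedlings were transplanted. On sowing day, the compound's emulsion, diluted in water to a set dose, was applied to the water surface. Plants grew at 25–30 °C and were scored 0–5 after three weeks.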

[12] = test system: lambsquarters; assay: Test Example 5: herbicidal effect by foliage application, plastic box (Table 20, symbol O); type: in vivo, lambsquarters (Chenopodium album)
How it was run: as §3

[13] = test system: persian speedwell; assay: Test Example 5: herbicidal effect by foliage application, plastic box (Table 20, symbol R); type: in vivo, Persian speedwell (Veronica persica)
How it was run: as §3

[14] = test system: green foxtail; assay: Test Example 4: herbicidal effect by soil treatment (Table 19, symbol G); type: in vivo, green foxtail (Setaria viridis); conditions: amount of applied herbicide 320 g/ha
How it was run: as §1

[15] = test system: redroot pigweed; assay: Test Example 4: herbicidal effect by soil treatment (Table 19, symbol N); type: in vivo, redroot pigweed (Amaranthus retroflexus); conditions: amount of applied herbicide 320 g/ha
How it was run: as §1

[16] = test system: redroot pigweed; assay: Test Example 5: herbicidal effect by foliage application, plastic box (Table 20, symbol N); type: in vivo, redroot pigweed (Amaranthus retroflexus)
How it was run: as §3

[17] = test system: lambsquarters; assay: Test Example 4: herbicidal effect by soil treatment (Table 19, symbol O); type: in vivo, lambsquarters (Chenopodium album); conditions: amount of applied herbicide 320 g/ha
How it was run: as §1

[18] = test system: wild oat; assay: Test Example 4: herbicidal effect by soil treatment (Table 19, symbol I); type: in vivo, wild oat (Avena fatua); conditions: amount of applied herbicide 320 g/ha
How it was run: as §1

[19] = test system: barnyard grass; assay: Test Example 4: herbicidal effect by soil treatment (Table 19, symbol H); type: in vivo, barnyard grass (Echinochloa crus-galli); conditions: amount of applied herbicide 320 g/ha
How it was run: as §1

[20] = test system: oval-leafed pondweed; assay: Test Example 1: herbicidal activity, application before weed generation under submerged conditions (Table 16, symbol C); type: in vivo, oval-leafed pondweed (Monochoria vaginalis); conditions: amount of applied herbicide 320 g/ha
How it was run: as §4

[21] = test system: windgrass; assay: Test Example 4: herbicidal effect by soil treatment (Table 19, symbol L); type: in vivo, windgrass (Apera spica-venti); conditions: amount of applied herbicide 320 g/ha
How it was run: as §1

[22] = test system: southern crabgrass; assay: Test Example 5: herbicidal effect by foliage application, plastic box (Table 20, symbol F); type: in vivo, southern crabgrass (Digitaria ciliaris)
How it was run: as §3

[23] = test system: barnyard grass; assay: Test Example 5: herbicidal effect by foliage application, plastic box (Table 20, symbol H); type: in vivo, barnyard grass (Echinochloa crus-galli)
How it was run: as §3

[24] = test system: chickweed; assay: Test Example 4: herbicidal effect by soil treatment (Table 19, symbol P); type: in vivo, common chickweed (Stellaria media); conditions: amount of applied herbicide 320 g/ha
How it was run: as §1

[25] = test system: windgrass; assay: Test Example 5: herbicidal effect by foliage application, plastic box (Table 20, symbol L); type: in vivo, windgrass (Apera spica-venti)
How it was run: as §3

[26] = test system: late watergrass; assay: Test Example 1: herbicidal activity, application before weed generation under submerged conditions (Table 16, symbol A); type: in vivo, late watergrass (Echinochloa oryzicola); conditions: amount of applied herbicide 320 g/ha
How it was run: as §4

[27] = test system: Chinese sprangletop; assay: Test Example 3: herbicidal effect by foliage application, Wagner pot (Table 18, symbol D); type: in vivo, chinese sprangletop (Leptochloa chinensis)
How it was run: as §2

[28] = test system: blackgrass; assay: Test Example 4: herbicidal effect by soil treatment (Table 19, symbol J); type: in vivo, blackgrass (Alopecurus myosuroides); conditions: amount of applied herbicide 320 g/ha
How it was run: as §1

[29] = test system: rice flat sedge; assay: Test Example 3: herbicidal effect by foliage application, Wagner pot (Table 18, symbol E); type: in vivo, rice flat sedge (Cyperus iria)
How it was run: as §2

[30] = test system: blackgrass; assay: Test Example 5: herbicidal effect by foliage application, plastic box (Table 20, symbol J); type: in vivo, blackgrass (Alopecurus myosuroides)
How it was run: as §3

[31] = test system: velvetleaf; assay: Test Example 4: herbicidal effect by soil treatment (Table 19, symbol M); type: in vivo, velvetleaf (Abutilon theophrasti); conditions: amount of applied herbicide 320 g/ha
How it was run: as §1

[32] = amount of applied herbicide 320 g/ha
[33] = foliage application, 320 g/ha, three weeks after application
[34] = amount of applied herbicide 320 g/ha, foliage application after 14-day growth, evaluated three weeks after application

Cc1nn(Cc2ccccc2)c(=O)c(-c2c(-c3ccc(F)cc3)sc3ccc(F)cc23)c1O [2-432]
herbicidal effect, R: persian speedwell [1]: 0 (Herbicidal rate of 5% or less (almost no effect))
herbicidal effect on H: barnyard grass [2, 32]: 3 (Herbicidal rate of 40% or more and less than 70%)
M: velvetleaf, herbicidal effect grade [3, 33]: 1 (Herbicidal rate of 5% or more and less than 20%)
G: green foxtail, herbicidal effect grade [4, 33]: 0 (Herbicidal rate of 5% or less (almost no effect))
Q: false cleavers, herbicidal effect grade [5, 33]: 3 (Herbicidal rate of 40% or more and less than 70%)
herbicidal effect, K: Italian ryegrass [6]: 0 (Herbicidal rate of 5% or less (almost no effect))
I: wild oat, herbicidal effect grade [7, 33]: 0 (Herbicidal rate of 5% or less (almost no effect))
K: Italian ryegrass, herbicidal effect grade [8, 33]: 0 (Herbicidal rate of 5% or less (almost no effect))
herbicidal effect, F: southern crabgrass [9]: 0 (Herbicidal rate of 5% or less (almost no effect))
P: chickweed, herbicidal effect grade [10, 33]: 5 (Herbicidal rate of 90% or more (almost completely withered))
Herbicidal effect, B: Japanese bulrush [11]: 0 (Herbicidal rate of 5% or less (almost no effect))
O: lambsquarters, herbicidal effect grade [12, 33]: 2 (Herbicidal rate of 20% or more and less than 40%)
R: persian speedwell, herbicidal effect grade [13, 33]: 5 (Herbicidal rate of 90% or more (almost completely withered))
herbicidal effect, G: green foxtail [14]: 1 (Herbicidal rate of 5% or more and less than 20%)
herbicidal effect, N: redroot pigweed [15]: 3 (Herbicidal rate of 40% or more and less than 70%)
N: redroot pigweed, herbicidal effect grade [16, 33]: 5 (Herbicidal rate of 90% or more (almost completely withered))
herbicidal effect, O: lambsquarters [17]: 2 (Herbicidal rate of 20% or more and less than 40%)
herbicidal effect, I: wild oat [18]: 0 (Herbicidal rate of 5% or less (almost no effect))
herbicidal effect, H: barnyard grass [19]: 0 (Herbicidal rate of 5% or less (almost no effect))
Herbicidal effect, C: oval-leafed pondweed [20]: 0 (Herbicidal rate of 5% or less (almost no effect))
herbicidal effect, L: windgrass [21]: 0 (Herbicidal rate of 5% or less (almost no effect))
F: southern crabgrass, herbicidal effect grade [22, 33]: 3 (Herbicidal rate of 40% or more and less than 70%)
H: barnyard grass, herbicidal effect grade [23, 33]: 1 (Herbicidal rate of 5% or more and less than 20%)
herbicidal effect, P: chickweed [24]: 0 (Herbicidal rate of 5% or less (almost no effect))
L: windgrass, herbicidal effect grade [25, 33]: 0 (Herbicidal rate of 5% or less (almost no effect))
Herbicidal effect, A: late watergrass [26]: 2 (Herbicidal rate of 20% or more and less than 40%)
herbicidal effect on D: Chinese sprangletop [27, 32]: 0 (Herbicidal rate of 5% or less (almost no effect))
herbicidal effect, J: blackgrass [28]: 0 (Herbicidal rate of 5% or less (almost no effect))
herbicidal effect on E: rice flat sedge [29, 32]: 2 (Herbicidal rate of 20% or more and less than 40%)
J: blackgrass, herbicidal effect grade [30, 33]: 0 (Herbicidal rate of 5% or less (almost no effect))
herbicidal effect, M: velvetleaf [31]: 0 (Herbicidal rate of 5% or less (almost no effect))

Cc1nn(C)c(=O)c(-c2c(-c3ccc(F)cc3)sc3cc(F)c(F)cc23)c1O [5-001]
R: persian speedwell, herbicidal effect grade [1]: 5 (Herbicidal rate of 90% or more (almost completely withered))
herbicidal effect on barnyard grass (H) ([2]; 320 g/ha): 4 (Herbicidal rate of 70% or more and less than 90%)
Herbicidal effect by foliage application, M: velvetleaf [3, 34]: 5 (Herbicidal rate of 90% or more (almost completely withered))
Herbicidal effect by foliage application, G: green foxtail [4, 34]: 5 (Herbicidal rate of 90% or more (almost completely withered))
Herbicidal effect by foliage application, Q: false cleavers [5, 34]: 5 (Herbicidal rate of 90% or more (almost completely withered))
K: Italian ryegrass, herbicidal effect grade [6]: 5 (Herbicidal rate of 90% or more (almost completely withered))
Herbicidal effect by foliage application, I: wild oat [7, 34]: 4 (Herbicidal rate of 70% or more and less than 90%)
Herbicidal effect by foliage application, K: Italian ryegrass [8, 34]: 5 (Herbicidal rate of 90% or more (almost completely withered))
F: southern crabgrass, herbicidal effect grade [9]: 5 (Herbicidal rate of 90% or more (almost completely withered))
Herbicidal effect by foliage application, P: chickweed [10, 34]: 5 (Herbicidal rate of 90% or more (almost completely withered))
Herbicidal effect, B: Japanese bulrush [11]: 1 (Herbicidal rate of 5% or more and less than 20%)
Herbicidal effect by foliage application, O: lambsquarters [12, 34]: 5 (Herbicidal rate of 90% or more (almost completely withered))
Herbicidal effect by foliage application, R: persian speedwell [13, 34]: 5 (Herbicidal rate of 90% or more (almost completely withered))
G: green foxtail, herbicidal effect grade [14]: 5 (Herbicidal rate of 90% or more (almost completely withered))
N: redroot pigweed, herbicidal effect grade [15]: 5 (Herbicidal rate of 90% or more (almost completely withered))
Herbicidal effect by foliage application, N: redroot pigweed [16, 34]: 5 (Herbicidal rate of 90% or more (almost completely withered))
O: lambsquarters, herbicidal effect grade [17]: 5 (Herbicidal rate of 90% or more (almost completely withered))
I: wild oat, herbicidal effect grade [18]: 3 (Herbicidal rate of 40% or more and less than 70%)
H: barnyard grass, herbicidal effect grade [19]: 0 (Herbicidal rate of 5% or less (almost no effect))
Herbicidal effect, C: oval-leafed pondweed [20]: 0 (Herbicidal rate of 5% or less (almost no effect))
L: windgrass, herbicidal effect grade [21]: 5 (Herbicidal rate of 90% or more (almost completely withered))
Herbicidal effect by foliage application, F: southern crabgrass [22, 34]: 5 (Herbicidal rate of 90% or more (almost completely withered))
Herbicidal effect by foliage application, H: barnyard grass [23, 34]: 4 (Herbicidal rate of 70% or more and less than 90%)
P: chickweed, herbicidal effect grade [24]: 4 (Herbicidal rate of 70% or more and less than 90%)
Herbicidal effect by foliage application, L: windgrass [25, 34]: 5 (Herbicidal rate of 90% or more (almost completely withered))
Herbicidal effect, A: late watergrass [26]: 3 (Herbicidal rate of 40% or more and less than 70%)
herbicidal effect on Chinese sprangletop (D) ([27]; 320 g/ha): 3 (Herbicidal rate of 40% or more and less than 70%)
J: blackgrass, herbicidal effect grade [28]: 4 (Herbicidal rate of 70% or more and less than 90%)
herbicidal effect on rice flat sedge (E) ([29]; 320 g/ha): 5 (Herbicidal rate of 90% or more (almost completely withered))
Herbicidal effect by foliage application, J: blackgrass [30, 34]: 4 (Herbicidal rate of 70% or more and less than 90%)
M: velvetleaf, herbicidal effect grade [31]: 4 (Herbicidal rate of 70% or more and less than 90%)
